Results reported in publication PMC7824259, “Novel Cecropin-4 Derived Peptides against Methicillin-Resistant Staphylococcus aureus” (Antibiotics, 2021).
≈ marks a conversion by molar mass, not a printed value. Like-named read-outs stand apart in the source and are kept apart here. No end group written: not given here.

How the values were obtained:
S. aureus MW2 [1] = experiment: Checkerboard synergy of C18 with clinical antibacterial agents; type: cell-based, Staphylococcus aureus; settings: for Kind of interaction with C18: named agent combined with C18, S. aureus MW2, checkerboard; for FICI (fractional inhibition concentration index): named agent combined with C18, S. aureus MW2, 8 × 8 checkerboard, synergy FICI ≤ 0.5, additive 0.5 < FICI ≤ 4, antagonism > 4
Protocol: The checkerboard assay was used to evaluate the synergy of C18 with conventional antibacterial agents against S. aureus MW2 [40]. Briefly, an 8 × 8 matrix was formed in a 96-well microtiter petri dish with two-fold serial dilutions of C18 combined with each conventional antibacterial agent. The fractional inhibition concentration index (FICI) was calculated: FICI = MIC of compound A in combination / MIC of compound A alone +MIC of compound B in combination / MIC of compound B alone.

S. aureus MW2 [2] = experiment: microbe, parasite or virus in culture; type: cell-based, Staphylococcus aureus; settings: for MIC: Staphylococcus aureus, MW2, 18 h
Protocol: Broth microdilution assays determined the MICs of peptides following the method described by the Clinical and Laboratory Standards Institute. In short, for each peptide, serial dilutions (50 µL) in duplicates were made in Mueller-Hinton broth (BD, Franklin Lakes, NJ, USA) in a 96-well plate (Cat No. 3595, Corning, NY, USA). […] After bacterial addition, the plates were incubated at 37°C for 18 h. […] To investigate each peptide’s activity in high salt concentrations or human serum, the MIC was again tested as described in the previous paragraph of the experimental method. […] All MIC assays were conducted in duplicate, with each experiment replicated twice.

S. aureus MW2 [3] = experiment: Propidium iodide membrane permeability; type: cell-based, Staphylococcus aureus; settings: 32 µg/mL, 1 h incubation
Protocol: Fluorescence-based bacterial permeation assay was used to follow the membrane-oriented interactions of the designed peptides. The propidium iodide probe is generally used to establish a pore formation mechanism of AMPs. In short, S. aureus MW2 was inoculated in MHB and grown overnight at 37 °C overnight with shaking at 220 rpm. A fresh inoculation was done the next day in the same media to achieve exponential growth. The culture was then washed with PBS 3 times and adjusted to OD600 ~0.3 in PBS. We added 48 μL of this culture to a 96-well black clear-bottom plate (Cat no. 3904, Corning, NY, USA) containing 50 μL of serially diluted 2 × peptide concentrations, and 2 μL of propidium iodide (20 μM) was added per well. Fluorescence was measured by SpectraMax M2 (Molecular Devices, CA, USA) with an excitation wavelength of 584 nm and an emission wavelength of 620 nm after 1 h at room temperature.

[4] = Rhodamine-BF dye leakage from liposomes; settings: liposomes DOPC: Cholesterol, 55:40; 1 h incubation
From the text: We also performed dye leakage experiments to further understand the membrane interactive nature of the peptides. A dye, rhodamine-BF, entrapped in liposomes (DOPC: Cholesterol, 55:40) was subjected to the action of the peptides.

human red blood cells = type: cell-based; settings: for HL50 (50% of human red blood cells were lysed): 1 h
Protocol: The ability of the peptide to cause hemoglobin leakage was evaluated, as described in a previous study. Human erythrocytes were purchased from Rockland Immunochemicals (Limerick, PA, USA), washed 3 × times in equal volume PBS, and resuspended as 4% hRBCs solution. One hundred microliters of the blood cells were added to 100 µl of the peptide solution in PBS serially diluted from 4–128 µg/mL in a 96-well microtiter plate. PBS and 1% Triton-X 100 were used as […] controls. Upon adding the blood cells, the plate was incubated at 37 °C for 1 h and then centrifuged at 500× g for 5 min. One hundred microliters of the supernatant were transferred to a fresh 96-well plate, and absorbance was read at 540 nm. The hemolysis percentage was calculated considering 100% hemolysis caused by 1% Triton X-100 and 0% on PBS. The values were represented as the mean of duplicates. The following formula calculated the percentage of hemolysis: (A540 nm in the peptide solution − A540 nm in PBS)/(A540 nm of 1% Triton X-100 treated sample − A540 nm in PBS) × 100. Zero and 100% percentage hemolysis were determined in PBS and […], respectively.

G. mellonella larvae = experiment: Galleria mellonella toxicity; type: in vivo; settings: uninfected larvae, doses 4, 8, 16, 32 mg/kg, even at 32 mg/kg, until 120 h, n = 16/group
Protocol: To study the protective effects of the peptide C18 in an in vivo model, we used an established wax moth model system. G. mellonella larvae (Vanderhorst Wholesale, St. Mary’s, OH, USA) were distributed as a different group with randomly selected larvae (n = 16/group). The S. aureus MW2 bacteria were grown to exponential phase from overnight culture. Cells were then washed with PBS three times and finally suspended in PBS with an OD600 = 0.3. Experimental groups consisted of untouched (no injection), PBS (vehicle), bacterial infection group, and treatment group. Vancomycin was used as a positive control. […] All injections were performed using a Hamilton syringe on the last left proleg. The larvae were incubated at 37 °C for 5 days, with live and dead counts being performed every 24 h.

HepG2 cells = experiment: Mammalian cell cytotoxicity (WST-1); type: cell-based, human; settings: 64 µg/mL, HepG2, 24 h
Protocol: HepG2 cells were used to assess the mammalian cell cytotoxicity of AMPs, as described previously. Cells were grown in Dulbecco’s Modified Eagle Medium (DMEM) (Gibco, MD, USA) supplemented with 10% fetal bovine serum (FBS) (Gibco, MD, USA) and 1% penicillin/streptomycin (Gibco, MD, USA) and maintained at 37°C in 5% CO2. Cells were harvested and resuspended in a fresh medium, and 100 µL were distributed in a 96-well plate at […]. AMPs were serially diluted in serum and antibiotic-free DMEM added to the monolayer of the cells, and the plates were incubated at 37 °C in 5% CO2 for 24 h. At 4 h, before the end of the incubation period, 10 µL of 2-(4-iodophenyl)-3-(4-nitrophenyl)-5-(2, 4-disulfophenyl)-2H-tetrazolium (WST-1) solution (Roche, Mannheim, Germany) was added to each well. WST-1 reduction was monitored at 450 nm using a Vmax microplate reader. Assays were performed in triplicate, and the percentage of cell survival was calculated.

psGABO-SPE plasmid DNA = experiment: Plasmid band shift assay (DNA binding)
Protocol: The methods in the reference were used to detect the ability of C18 binding DNA [43]. Briefly, the reaction of 20 μL containing 100 ng psGABO-SPE plasmid DNA (Addgene, MA, USA), polymyxin B, and C18 (1.95–500 μM) or ddH2O (control) was incubated in TE (Tris-EDTA) buffer (Invitrogen, CA, USA) at 37 °C for 2 h. The products were detected in 1% agarose gel electrophoresis, and plasmid migration was observed on a G: BOX Chemi XT4 gel doc system.

Molecule | Kind of interaction with C18 (S. aureus MW2 [1]) | FICI (fractional inhibition concentration index) (S. aureus MW2 [1]) | HL50 (50% of human red blood cells were lysed) (human red blood cells) [µg/mL] | also measured
CCCCCCCCCC(=O)N[C@@H](Cc1c[nH]c2ccccc12)C(=O)N[C@H](CC(N)=O)C(=O)N[C@@H](CC(=O)O)C(=O)N[C@@H]1C(=O)NCC(=O)N[C@@H](CCCN)C(=O)N[C@@H](CC(=O)O)C(=O)N[C@H](C)C(=O)N[C@@H](CC(=O)O)C(=O)NCC(=O)N[C@H](CO)C(=O)N[C@@H]([C@H](C)CC(=O)O)C(=O)N[C@@H](CC(=O)c2ccccc2N)C(=O)O[C@@H]1C [daptomycin] | synergistic effect |  |  | 
CNC(C)C1CCC(N)C(OC2C(N)CC(N)C(OC3OCC(C)(O)C(NC)C3O)C2O)O1 (stereo not shown) [gentamicin] | additive effect | 1.25 |  | 
Cc1onc(-c2ccccc2)c1C(=O)N[C@@H]1C(=O)N2[C@@H]1SC(C)(C)[C@@H]2C(=O)O [oxacillin] | additive effect | 0.75 |  | 
CN[C@H](CC(C)C)C(=O)N[C@H]1C(=O)N[C@@H](CC(N)=O)C(=O)N[C@H]2C(=O)N[C@H]3C(=O)N[C@H](C(=O)N[C@H](C(=O)O)c4cc(O)cc(O)c4-c4cc3ccc4O)[C@H](O)c3ccc(c(Cl)c3)Oc3cc2cc(c3O[C@@H]2O[C@H](CO)[C@@H](O)[C@H](O)[C@H]2O[C@H]2C[C@](C)(N)[C@H](O)[C@H](C)O2)Oc2ccc(cc2Cl)[C@H]1O [vancomycin] | additive effect | 0.625 |  | MIC against S. aureus MW2, Serum (5%) (S. aureus MW2 [2]; MHB with human serum (5%), 37 °C, 18 h, duplicate, replicated twice): not changed; MIC (S. aureus MW2 [2]; read-out: MIC against S. aureus MW2, CaCl2 (2 mM)): 2 µg/mL (≈ 1.38 µM); MIC (S. aureus MW2 [2]; read-out: MIC against S. aureus MW2, MHB): 2 µg/mL (≈ 1.38 µM); MIC (S. aureus MW2 [2]; read-out: MIC against S. aureus MW2, NaCl (150 mM)): 2 µg/mL (≈ 1.38 µM); Propidium iodide fluorescence (S. aureus MW2 [3]): unable to induce any fluorescence; Rhodamine-BF fluorescence (dye leakage) [4]: lowest
LWKIGKKIWRVLWNWR [C18] |  |  | 16 | HL50 relative to MIC against MRSA MW2 (human red blood cells): 4 times; Larvae survival (toxicity) (G. mellonella larvae): more than 70%
LWKIWKKIWRVGWNWR [C13] |  |  | 48 | 
LWKIWKKIWRVWKNWR [C16] |  |  | 16 | 
LWKIWWKIWRVWKNWR [C22] |  |  | 4 | Reduction of live-cell contents (HepG2 cells): 20%
polymyxin B |  |  |  | Concentration of significant DNA binding (psGABO-SPE plasmid DNA; 100 ng plasmid, TE buffer, 37 °C, 2 h, 1% agarose gel, 1.95–500 μM tested): 31.2 µM; Concentration of significant DNA binding (psGABO-SPE plasmid DNA; same concentration in brackets): 37.1 µg/mL
